Results from PubChem BioAssay (NCI).
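All cell lines were grown in 96-well plates and treated with compound for 48 hours. Abbreviation: GI50, concentration required for 50% inhibition of growth. Definition used: TGI = concentration required for complete inhibition of growth.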 *1 amine or outer side, *2 acyl side, *3 side chain or, on linkers, in order; H or OH if unused. Where a SMILES comes first, the peptide text is derived from it. Bridges are numbered along the chain shown (N, C = ends). Roman numbers before positions name the chains, in order. [ ]: non-standard residue; d: D form. Actinocin(9to1) = Cc1c2oc3c(C)ccc(C(=O)[*:1])c3nc-2c(C(=O)[*:2])c(N)c1=O; NMeV = CN[CH](C(=O)O)C(C)C; Sar = CNCC(=O)O

Legend:
Assay in all cases: NCI-60 cell line screen, 48 h
TK-10 renal = tested on: TK-10 renal
NCI-H522 lung = tested on: NCI-H522 lung
SK-MEL-2 melanoma = tested on: SK-MEL-2 melanoma
HOP-62 NSCLC = tested on: HOP-62 NSCLC
IGROV1 ovarian = tested on: IGROV1 ovarian
SF-295 CNS = tested on: SF-295 CNS
ACHN renal = tested on: ACHN renal
RPMI-8226 leukemia = tested on: RPMI-8226 leukemia
SNB-75 CNS = tested on: SNB-75 CNS
HCT-15 colon = tested on: HCT-15 colon
SF-268 CNS = tested on: SF-268 CNS
SK-MEL-28 melanoma = tested on: SK-MEL-28 melanoma
OVCAR-5 ovarian = tested on: OVCAR-5 ovarian
EKVX NSCLC = tested on: EKVX NSCLC
RXF 393 renal = tested on: RXF 393 renal
T-47D breast = tested on: T-47D breast

| SMILES | TGI (TK-10 renal) | TGI (NCI-H522 lung) | TGI (SK-MEL-2 melanoma) | TGI (HOP-62 NSCLC) | TGI (IGROV1 ovarian) | TGI (SF-295 CNS) | TGI (ACHN renal) | TGI (RPMI-8226 leukemia) | TGI (SNB-75 CNS) | TGI (HCT-15 colon) | TGI (SF-268 CNS) | TGI (SK-MEL-28 melanoma) | TGI (OVCAR-5 ovarian) | TGI (EKVX NSCLC) | TGI (RXF 393 renal) | GI50 (OVCAR-5 ovarian) | TGI (T-47D breast) |
| --- | --- | --- | --- | --- | --- | --- | --- | --- | --- | --- | --- | --- | --- | --- | --- | --- | --- |
| Cc1cn(C2OC(CO[Si](C)(C)C(C)(C)C)C(N(C)O[Si](C)(C)C(C)(C)C)C2[Se]c2ccccc2)c(=O)[nH]c1=O (stereo not given) | 27.1 µM | 11.6 µM | 34 µM | 43.1 µM | 28.2 µM | 26 µM | 18.3 µM | > 100 µM | 21.4 µM | 30.1 µM | 10.2 µM | 22.2 µM | 11.7 µM | – | – | – | – |
| COc1ccc(C2Oc3cc(OC)c(OC)cc3C2CCl)cc1OC (stereo not given) | > 100 µM | > 100 µM | > 100 µM | > 100 µM | – | – | > 100 µM | > 100 µM | > 100 µM | > 100 µM | > 100 µM | > 100 µM | > 100 µM | > 100 µM | – | – | – |
| O=c1[nH]c2cc(Cl)ccc2nc1/C(=N\Nc1ccccc1)C(O)c1ccc(Cl)c(Cl)c1 (stereo not given) | > 100 µM | > 100 µM | > 100 µM | > 100 µM | > 100 µM | > 100 µM | > 100 µM | > 100 µM | > 100 µM | > 100 µM | > 100 µM | – | > 100 µM | > 100 µM | > 100 µM | – | – |
| Nc1nc(Cl)cc(OCC2(CO)CC=CC2)n1 | > 100 µM | > 100 µM | – | > 100 µM | > 100 µM | > 100 µM | > 100 µM | > 100 µM | > 100 µM | > 100 µM | > 100 µM | > 100 µM | > 100 µM | > 100 µM | > 100 µM | – | – |
| Cc1c2oc3c(C)ccc(C(=O)NC4C(=O)NC(C(C)C)C(=O)N5CCCC5C(=O)N(C)CC(=O)N(C)C(C(C)C)C(=O)OC4C)c3nc-2c(C(=O)NC2C(=O)NC(C(C)C)C(=O)N3CCCC3C(=O)N(C)CC(=O)N(C)C(C(C)C)C(=O)OC2C)c(N)c1=O (stereo not given) (I: TVP[Sar][NMeV] / II: TVP[Sar][NMeV]; ester I:1-I:C, II:1-II:C; linker I:N-II:N via Actinocin(9to1); configuration not given here) | > 0.246 µM | 0.00137 µM | 0.00295 µM | 0.00696 µM | > 0.396 µM | 0.0687 µM | – | > 1 µM | 0.000907 µM | > 1 µM | 0.0269 µM | 0.0125 µM | 0.00663 µM | > 0.779 µM | 0.00653 µM | 0.00145 µM | – |
| CCOC(=O)c1csc(NC(=O)CN2CCCC2)n1 | > 100 µM | – | > 100 µM | > 100 µM | > 100 µM | > 100 µM | > 100 µM | > 100 µM | > 100 µM | > 100 µM | > 100 µM | > 100 µM | > 100 µM | > 100 µM | > 100 µM | – | > 100 µM |
| O=C1/C(=C\c2ccc(Cl)cc2Cl)Sc2scc(-c3ccc(O)c(O)c3)[n+]21 | 38.8 µM | 39.4 µM | 35.5 µM | 30.1 µM | 50.7 µM | 49.2 µM | 46.3 µM | – | 53.4 µM | 30.1 µM | > 100 µM | 31.7 µM | 46.3 µM | 49 µM | 37.1 µM | – | – |
| N#Cc1nc(-c2cnccn2)oc1N | > 100 µM | – | > 100 µM | > 100 µM | > 100 µM | – | > 100 µM | > 100 µM | > 100 µM | > 100 µM | > 100 µM | > 100 µM | > 100 µM | > 100 µM | > 100 µM | – | – |
